In the supplement of paper PMC11061612:

Experiments:
Assay in all cases: Bliss excess, mean over the matrix (fraction); higher = more synergy
[1] = tested on: C-33-A (Cervical Carcinoma)
Method in brief: (§1)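 Bliss excess equals the observed combination effect minus the expected value EA + EB − EA·EB, where EA and EB are the effects of each agent alone. Combination Emax is the second-highest inhibition within the matrix. Inhibition was scaled from CellTiter-Glo 2.0 luminescence, with 0 set by vehicle wells and 1 by blank wells, after 72 hours of two-drug dosing of cells plated in 1536-well plates.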

[2] = tested on: CPC-N (Small Cell Lung Carcinoma)
Method in brief: as §1

[3] = tested on: DBTRG-05MG (Glioblastoma)
Method in brief: as §1

ES6 (Ewing's Sarcoma) = tested on: ES6 (Ewing's Sarcoma)
Method in brief: as §1

KALS-1 (Glioblastoma) = tested on: KALS-1 (Glioblastoma)
Method in brief: as §1

[4] = tested on: LCLC-103H (Non-Small Cell Lung Carcinoma)
Method in brief: as §1

[5] = tested on: LS-1034 (Colorectal Carcinoma)
Method in brief: as §1

[6] = tested on: MOLP-8 (Plasma Cell Myeloma)
Method in brief: as §1

[7] = tested on: NAMALWA (Burkitt's Lymphoma)
Method in brief: as §1

[8] = tested on: NCI-H1963 (Small Cell Lung Carcinoma)
Method in brief: as §1

[9] = tested on: OAW-28 (Ovarian Carcinoma)
Method in brief: as §1

[10] = tested on: PL4 (Pancreatic Carcinoma)
Method in brief: as §1

[11] = tested on: RCC-JW (Kidney Carcinoma)
Method in brief: as §1

[12] = tested on: SAT (Head and Neck Carcinoma)
Method in brief: as §1

[13] = tested on: SCC-4 (Oral Cavity Carcinoma)
Method in brief: as §1

SK-N-SH (Neuroblastoma) = tested on: SK-N-SH (Neuroblastoma)
Method in brief: as §1

[14] = tested on: SKG-IIIa (Cervical Carcinoma)
Method in brief: as §1

[15] = tested on: SNU-C2B (Colorectal Carcinoma)
Method in brief: as §1

[16] = tested on: SUP-M2 (T-Cell Non-Hodgkin's Lymphoma)
Method in brief: as §1

[17] = tested on: SiHa (Cervical Carcinoma)
Method in brief: as §1

Structure (SMILES) | Bliss excess [1] | Bliss excess [2] | Bliss excess [3] | Bliss excess (ES6 (Ewing's Sarcoma)) | Bliss excess (KALS-1 (Glioblastoma)) | Bliss excess [4] | Bliss excess [5] | Bliss excess [6] | Bliss excess [7] | Bliss excess [8] | Bliss excess [9] | Bliss excess [10] | Bliss excess [11] | Bliss excess [12] | Bliss excess [13] | Bliss excess (SK-N-SH (Neuroblastoma)) | Bliss excess [14] | Bliss excess [15] | Bliss excess [16] | Bliss excess [17]
CCN(CCO)CCCOc1ccc2c(Nc3cc(CC(=O)Nc4cccc(F)c4)[nH]n3)ncnc2c1 [AZD2811] + C[C@@H]1COCCN1C2=NC(=NC(=C2)C3(CC3)[S@](=N)(=O)C)C4=C5C=CNC5=NC=C4 [AZD6738] (first compound max 1 µM, 7x7, partner max 10 µM) | -0.0531 | -0.0794 | -0.0657 | -0.0479 | -0.038 | -0.119 | -0.0473 | -0.028 | 0.0394 | -0.0777 | -0.0207 | -0.0171 | -0.0203 | -0.0581 | -0.0707 | -0.0358 | -0.0409 | -0.0581 | -0.0545 | -0.0137
CC1(C)CCC(CN2CCN(c3ccc(C(=O)NS(=O)(=O)c4ccc(NCC5CCOCC5)c([N+](=O)[O-])c4)c(Oc4cnc5[nH]ccc5c4)c3)CC2)=C(c2ccc(Cl)cc2)C1 [Venetoclax] + COc1cc(Nc2ncc3c(n2)-c2ccc(Cl)cc2C(c2c(F)cccc2OC)=NC3)ccc1C(=O)O [Alisertib] (first compound max 1 µM, 7x7, partner max 10 µM) | -0.0225 | -0.047 | -0.0248 | -0.0324 | -0.0642 | -0.0132 | -0.0252 | 0.141 | -0.0072 | 0.0303 | 0.0736 | -0.0531 | -0.0415 | -0.0525 | 0.0421 | 0.0326 | -0.0544 | 0.0168 | -0.0043 | -0.0669
CN(CCO)CC[C@H](CSc1ccccc1)Nc1ccc(S(=O)(=O)NC(=O)c2ccc(N3CCC([C@@H](O)c4ccccc4-c4ccc(Cl)cc4)CC3)cc2)cc1S(=O)(=O)C(F)(F)F [AZD4320] + Cn1cnc2c(F)c(Nc3ccc(Br)cc3Cl)c(C(=O)NOCCO)cc21 [Selumetinib] (first compound max 1 µM, 7x7, partner max 3 µM) | 0.0597 | -0.0185 | 0.0074 | -0.0326 | 0.0924 | 0.0112 | -0.0454 | 0.0614 | 0.0105 | 0.0204 | 0.0927 | 0.0473 | -0.0079 | 0.0523 | 0.054 | 0.0457 | 0.0044 | 0.0528 | 0.0058 | -0.0315
NC1(C(=O)N[C@@H](CCO)c2ccc(Cl)cc2)CCN(c2ncnc3[nH]ccc23)CC1 [Capivasertib] + COc1nnc2ccc(N3CCC(c4ccc(OCCN5CCN(C)C(=O)[C@H]5C)cc4)CC3)nn12 [AZD5153] (first compound max 10 µM, 7x7, partner max 1 µM) | 0.0321 | -0.0348 | -0.0239 | 0.0103 | -0.0749 | -0.0028 | 0.0201 | 0.0092 | -0.0058 | 0.0036 | 0.0387 | -0.0138 | 0.0516 | -0.0508 | 0.0043 | 0.0362 | 0.0067 | -0.0442 | -0.0322 | 0.006
CCN(CCO)CCCOc1ccc2c(Nc3cc(CC(=O)Nc4cccc(F)c4)[nH]n3)ncnc2c1 [AZD2811] + C=CCn1c(=O)c2cnc(Nc3ccc(N4CCN(C)CC4)cc3)nc2n1-c1cccc(C(C)(C)O)n1 [AZD1775] (first compound max 1 µM, partner max 1 µM) | 0.0111 | -0.0239 | -0.0402 | -0.0792 | -0.0307 | 0.0066 | 0.0033 | 0.0185 | -0.0101 | -0.0448 | 0.0277 | -0.0002 | -0.0118 | 0.033 | -0.0024 | -0.0544 | -0.0142 | -0.0602 | -0.036 | 0.0089
COc1cccc(OCCCN)c1-c1cc(Nc2cnc(C#N)cn2)n[nH]1 [Prexasertib] + C[C@@H]1COCCN1C2=NC(=NC(=C2)C3(CC3)[S@](=N)(=O)C)C4=C5C=CNC5=NC=C4 [AZD6738] (first compound max 1 µM, 7x7, partner max 10 µM) | 0.0091 | -0.013 | -0.0378 | 0.0366 | -0.0557 | 0.0242 | 0.035 | -0.0366 | -0.0052 | -0.0231 | 0.0102 | -0.0024 | 0.0671 | -0.0238 | -0.0323 | -0.0425 | 0.0363 | -0.0274 | -0.0061 | 0.0191
CN(CCO)CC[C@H](CSc1ccccc1)Nc1ccc(S(=O)(=O)NC(=O)c2ccc(N3CCC([C@@H](O)c4ccccc4-c4ccc(Cl)cc4)CC3)cc2)cc1S(=O)(=O)C(F)(F)F [AZD4320] + C1CN(CCC1(C(=O)N[C@@H](CCO)C2=CC=C(C=C2)Cl)N)C3=NC=NC4=C3C=CN4 [Capivasertib] (first compound max 1 µM, 7x7, partner max 3 µM) | -0.0302 | -0.0158 | -0.047 | -0.0522 | -0.0039 | -0.0548 | -0.0089 | -0.025 | 0.0419 | 0.0172 | -0.0345 | -0.0712 | -0.0559 | -0.0363 | -0.0454 | -0.0363 | -0.0318 | -0.0305 | -0.0192 | -0.0476
